Assay results from PubChem BioAssay AID1259407 (Chemical Carcinogenesis Research Information System (CCRIS), 2018).
Activity calls are given as the source filed them. How the calls were made is not given here.

Tested on: CCRIS mutagenicity, Ames/micronucleus/aberration tests
Assay: CCRIS mutagenicity studies

In the case of `O=C1c2c(O)cc(O)cc2O[C@H](c2ccc(O)c(O)c2)[C@H]1O`, the mutagenic call (Test System: Ames Salmonella typhimurium, Strain/Indicator: TA102, Metabolic Activation: Fe ++ (1 uM) with NADPH generating system, Method: Preincubation) is reported as “inactive; negative”, the mutagenic call (Test System: Ames Salmonella typhimurium, Strain/Indicator: TA102, Metabolic Activation: None, Method: Preincubation) is reported as “inactive; negative” and the mutagenic call (Test System: Ames Salmonella typhimurium, Strain/Indicator: TA102, Metabolic Activation: Rat, Liver, S-9, Aroclor 1254, Method: Preincubation) is reported as “inactive; negative”. The mutagenic call (Test System: Ames Salmonella typhimurium, Strain/Indicator: TA102, Metabolic Activation: Rat, Liver, S-9, Aroclor 1254 in 0.154 M KCl, Method: Preincubation) was “inactive; negative”, the mutagenic call (Test System: E. coli, Strain/Indicator: WP2 uvrA, Metabolic Activation: Fe ++ (1 uM) with NADPH generating system, Method: Preincubation) was “inactive; negative. authors say results are positive at 100 and 250 um but results are bar” and the mutagenic call (Test System: E. coli, Strain/Indicator: WP2 uvrA, Metabolic Activation: None, Method: Preincubation) was “inactive; negative”. The mutagenic call (Test System: E. coli, Strain/Indicator: WP2 uvrA, Metabolic Activation: Rat, Liver, S-9, Aroclor 1254, Method: Preincubation) was “inactive; negative”.
With `O=[N+]([O-])c1c2c(c3ccc4cccc5ccc1c3c45)CCCC2` the mutagenic call (Test System: AMES SALMONELLA TYPHIMURIUM, Strain/Indicator: TA98, Metabolic Activation: NONE, Method: STANDARD PLATE) was “inactive; negative” and the mutagenic call (Test System: AMES SALMONELLA TYPHIMURIUM, Strain/Indicator: TA100, Metabolic Activation: NONE, Method: STANDARD PLATE) was “inactive; negative”.
With `Cc1c2ccccc2c(C)c2c1c1c(c3ccccc32)N1` the mutagenic call (Test System: AMES SALMONELLA TYPHIMURIUM, Strain/Indicator: TA98, Metabolic Activation: NONE, Method: PREINCUBATION) was “active; positive”.
